The target of this assay is T1, farnesoid X receptor (Homo sapiens, UniProt Q96RI1).
T1 construct: fused on or other part: GST fused in frame to the N-terminus of the LBD (TR-FRET assay only); Nothing is fused on in the co-transfection assay
T1 sequence (Q96RI1 244-471 isoform Q96RI1-2 limits assumed): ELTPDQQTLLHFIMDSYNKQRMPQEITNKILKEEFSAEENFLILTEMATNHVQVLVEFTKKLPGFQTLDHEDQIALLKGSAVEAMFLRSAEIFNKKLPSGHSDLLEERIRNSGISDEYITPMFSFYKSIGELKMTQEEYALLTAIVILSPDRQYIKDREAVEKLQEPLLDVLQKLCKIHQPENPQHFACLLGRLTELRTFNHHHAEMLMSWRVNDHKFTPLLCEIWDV
The assay is described as follows: one or more of the in vitro assays described herein (TR-FRET assay, Example 75; co-transfection assay, Example 76).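 As to all read-outs here: TR-FRET assay or luciferase reporter in CV-1 monkey kidney cells co-transfected with human FXR and RXRα, dose-response over 8 half-log concentrations, CDCA added in antagonist mode.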 The note with it: for Emax: read-out: efficacy; for inhibition: 100% = baseline (DMSO only). (TR-FRET usually uses a lanthanide donor and a delayed reading to cut background.)

The mark [1] stands for this setting: relative to maximum response of chenodeoxycholic acid (CDCA).
Where [2] appears, read: inhibition of the activity of CDCA.
Setting [3] is: inhibition of the activity of CDCA, read-out: IC50 (antagonist / partial agonist).
Where [4] appears, read: one or more of the in vitro assays, read-out: EC50 (agonist / partial agonist).

The structures appear in SMILES notation. Like-named read-outs stand apart in the source and are kept apart here.

Experimental: (Wallac/PE Life Sciences, Cat# AD0059A) in FRET assay buffer (20 mM KH2PO4/K2HPO4 (pH 7.3), 150 mM NaCl, 2 mM CHAPS, 2 mM EDTA, 1 mM DTT) in the presence of the test compound(s) for 2-4 hours at room temperature in a 384 well assay plate. Data was collected using an LJL Analyst using the standard operating instructions and conditions with readings at emission wavelengths of 615 nm and 665 nm after a delay of 65 ps and an excitation wavelength of 330 nm.
The basic co-transfection protocol for measuring the farnesoid X receptor activity is as follows. CV-1 African Green Monkey Kidney cells were plated 24 hours before transfection to achieve approximately 70-80 percent confluency. Cells were transfected with the following expression vectors, CMX-farnesoid X receptor (full length human farnesoid X receptor), CMX-RXRα (full length human RXR), Luc12 (ECREx7-Tk-Luciferase) luciferase reporter gene construct. […] A CMX-β-Galactosidase expression vector was used as a transfection control. The transfection reagent used was DOTAP (Boehringer Mannheim). Cells were incubated with the DOTAP/DNA mixture for 5 hours after which the cells were harvested and plated onto either 96 well or 384 well plates containing the appropriate concentration of test compound. The assay was allowed to continue for an additional 18-20 hours, after which the cells were lysed, with lysis buffer (1% triton X 100, 10% glycerol, 5 mM Dithiothreitol, 1 mM EGTA, 25 mM Tricine, pH 7.8) and the luciferase activity measured in the presence of Luciferase assay buffer (0.73 mM ATP, 22.3 mM Tricine, 0.11 mM EGTA, 0.55 mM Luciferin, 0.15 mM Coenzyme A, 0.5 mM HEPES, 10 mM Magnesium sulphate) on a standard luminomter plate reader (PE Biosystems, NorthStar Reader), using recommended operating instructions and conditions.
Both the farnesoid X receptor/ECREx7 co-transfection assay (Example 76) and the TR-FRET assay (Example 75) can be used to establish the EC50/IC50 values for potency and percent activity or inhibition for efficacy. Efficacy defines the activity of a compound relative to a high control (chenodeoxycholic acid, CDCA) or a low control (DMSO/vehicle). The dose response curves are generated from an 8 point curve with concentrations differing by ½ LOG units. Each point represents the average of 4 wells of data from a 384 well plate. The curve for the data is generated by using the equation: Y=Bottom+(Top−Bottom)/(1+10^((LogEC50−X)*HillSlope))
The EC50/IC50 is therefore defined as the concentration at which an agonist or antagonist elicits a response that is half way between the Top (maximum) and Bottom (baseline) values. The EC50/IC50 values represented are the averages of at least 3 independent experiments. The determination of the relative efficacy or % control for an agonist is by comparison to the maximum response achieved by chenodeoxycholic acid that is measured individually in each dose response experiment.
For the antagonist assay, CDCA is added to each well of a 384 well plate to elicit a response. The % inhibition for each antagonist is therefore a measurement of the inhibition of the activity of CDCA.

On to `CC(C)OC(=O)C1=CN(C(=O)c2ccc(F)c(F)c2)CC(C)(C)c2c1[nH]c1ccccc21` [isopropyl 3-(3,4-difluorobenzoyl)-1,1-dimethyl-1,2,3,6-tetrahydroazepino[4,5-b]indole-5-carboxylate], for which the Emax under setting [1] was greater than 100%.

For the compound `CCOC(=O)C1=CN(C(=O)c2ccc(F)cc2)CC(C)(C)c2c1[nH]c1cc(OC(=O)NCc3ccccn3)ccc21` [3-(4-fluorobenzoyl)-1,1-dimethyl-8-(pyridin-2-yl-methylcarbamoyloxy)-1,2,3,6-tetrahydroazepino[4,5-b]indole-5-carboxylic acid ethyl ester], the EC50 is less than 0.2 µM, the IC50 is less than 0.2 µM and the Emax was 10 to 30%.

By inhibition is commonly meant the relative decrease from the control value, in per cent. Low values mean little suppression, high ones strong suppression. Consider `CCOC(=O)C1=CN(C(=O)c2ccc(F)cc2)CC(C)(C)c2c1[nH]c1cc(OC(=O)NC(C)C)ccc21` [3-(4-fluorobenzoyl)-1,1-dimethyl-8-isopropylcarbamoyloxy-1,2,3,6-tetrahydroazepino[4,5-b]indole-5-carboxylic acid ethyl ester], for which the inhibition under setting [2] amounted to 100%. The IC50 under setting [3] is less than 0.1 µM.

Compound `CCOC(=O)C1=CN(C(=O)c2ccc(F)cc2)CC(C)(C)c2c1[nH]c1cc(OC(=O)NCc3cccs3)ccc21` [3-(4-fluorobenzoyl)-1,1-dimethyl-8-(thiophen-2-ylmethylcarbamoyloxy)-1,2,3,6-tetrahydroazepino[4,5-b]indole-5-carboxylic acid ethyl ester] displayed an inhibition under setting [2] of 100%. Also, under setting [3], the IC50 was less than 0.1 µM.

For `CC1Cc2c([nH]c3ccccc23)C(C(=O)NC2CCC2)=CN1C(=O)c1ccc(F)cc1` (centres unmarked) [3-(4-fluorobenzoyl)-2-methyl-1,2,3,6-tetrahydroazepino[4,5-b]indole-5-carboxylic acid cyclobutylamide], the EC50 under setting [4] was less than 0.1 µM. Also, the Emax under setting [1] was greater than 100%.

For `CCOC(=O)C1=CN(C(=O)c2ccc(F)cc2)CC(C)(C)c2c1[nH]c1cc(OC(=O)NCCc3ccccn3)ccc21` [3-(4-fluorobenzoyl)-1,1-dimethyl-8-(2-pyridin-2-yl-ethylcarbamoyloxy)-1,2,3,6-tetrahydroazepino[4,5-b]indole-5-carboxylic acid ethyl ester], the IC50 under setting [3] was less than 0.2 µM. Moreover, the EC50 under setting [4] is less than 0.2 µM. For the same compound, under setting [1], the Emax fell in the range of 10 to 30%.

As to `CCOC(=O)C1=CN(C(=O)c2ccc(F)cc2)CC(C)(C)c2c1[nH]c1cc(OC(=O)NCc3cnc(C)cn3)ccc21` [3-(4-fluorobenzoyl)-1,1-dimethyl-8-(5-methylpyrazin-2-ylmethylcarbamoyloxy)-1,2,3,6-tetrahydroazepino[4,5-b]indole-5-carboxylic acid ethyl ester], the IC50 under setting [3] was less than 0.2 µM. In addition, the EC50 under setting [4] is less than 0.2 µM. Also, the Emax under setting [1] lay within 10 to 30%.

Take `CCOC(=O)C1=CN(C(=O)c2ccc(F)cc2)CC(C)(C)c2c1[nH]c1cc(OC(=O)NCc3cccnc3)ccc21` [3-(4-fluorobenzoyl)-1,1-dimethyl-8-(pyridin-3-ylmethylcarbamoyloxy)-1,2,3,6-tetrahydroazepino[4,5-b]indole-5-carboxylic acid ethyl ester]: the IC50 under setting [3] was less than 0.2 µM. The EC50 under setting [4] was less than 0.2 µM. Also, the Emax under setting [1] was in the range of 10 to 30%.

As for `CCOC(=O)C1=CN(C(=O)c2ccc(F)cc2)CC(C)(C)c2c1[nH]c1cc(OC(=O)NC3CCCCC3)ccc21` [8-cyclohexylcarbamoyloxy-3-(4-fluorobenzoyl)-1,1-dimethyl-1,2,3,6-tetrahydroazepino[4,5-b]indole-5-carboxylic acid ethyl ester], under setting [3], the IC50 is less than 0.2 µM. The EC50 under setting [4] is less than 0.2 µM. In addition, the Emax under setting [1] lay within 10 to 30%.

In the case of `CCOC(=O)C1=CN(C(=O)c2ccc(F)c(F)c2)CC2(CCCC2)c2c1[nH]c1ccccc21` [3-(3,4-difluorobenzoyl)-1,1-tetramethylene-1,2,3,6-tetrahydroazepino[4,5-b]indole-5-carboxylic acid ethyl ester], the EC50 under setting [4] is less than 0.1 µM. The Emax under setting [1] is greater than 100%.

For `CCOC(=O)C1=CN(C(=O)c2ccc(F)cc2)CC(C)(C)c2c1[nH]c1ccc(F)cc21` [9-Fluoro-3-(4-fluoro-benzoyl)-1,1-dimethyl-1,2,3,6-tetrahydro-azepino[4,5-b]indole-5-carboxylic acid ethyl ester], the EC50 under setting [4] was less than 0.1 µM. The Emax under setting [1] is greater than 100%.

Regarding `CC(C)OC(=O)C1=CN(C(=O)c2ccc(F)c(F)c2)CC(C)c2c1[nH]c1ccccc21` (centres unmarked) [isopropyl 3-(3,4-difluorobenzoyl)-1-methyl-1,2,3,6-tetrahydroazepino[4,5-b]indole-5-carboxylate], the EC50 under setting [4] is less than 0.1 µM. Further, the Emax under setting [1] is greater than 100%.

With `CCOC(=O)C1=CN(C(=O)c2ccc(F)cc2)CC(C)(C)c2c1[nH]c1ccc(N(Cc3ccccc3)C(=O)N(C)C)cc21` [9-(1-benzyl-3,3-dimethyl-ureido)-3-(4-fluoro-benzoyl)-1,1-dimethyl-1,2,3,6-tetrahydro-azepino[4,5-b]indole-5-carboxylic acid ethyl ester], under setting [2], the inhibition amounted to 100%. Besides, the IC50 under setting [3] is less than 0.1 µM.

With `CCOC(=O)C1=CN(C(=O)c2ccc(F)cc2)CC(C)(C)c2c1[nH]c1cc(N(C)C(=O)NCc3ccccn3)ccc21` [3-(4-fluorobenzoyl)-1,1-dimethyl-8-(1-methyl-3-pyridin-2-ylmethylureido)-1,2,3,6-tetrahydroazepino[4,5-b]indole-5-carboxylic acid ethyl ester], the inhibition under setting [2] stood at 100%. The IC50 under setting [3] is less than 0.1 µM.

For `CCOC(=O)C1=CN(C(=O)c2ccc(F)c(F)c2)CC(C)c2c1[nH]c1ccccc21` (centres unmarked) [ethyl 3-(3,4-difluorobenzoyl)-1-methyl-1,2,3,6-tetrahydroazepino[4,5-b]indole-5-carboxylate], the EC50 under setting [4] was less than 0.1 µM. In addition, the Emax under setting [1] is greater than 100%.

`CCOC(=O)C1=CN(C(=O)c2ccc(F)cc2)CC(C)(C)c2c1[nH]c1cc(OC(=O)NC3CC3)ccc21` [8-cyclopropylcarbamoyloxy-3-(4-fluorobenzoyl)-1,1-dimethyl-1,2,3,6-tetrahydroazepino[4,5-b]indole-5-carboxylic acid ethyl ester] returned an inhibition under setting [2] of 100%. Moreover, the IC50 under setting [3] was less than 0.1 µM.

Take `CCOC(=O)C1=CN(C(=O)c2ccc(F)cc2)CC(C)(C)c2c1[nH]c1cc(N(C)C(=O)NC3CC3)ccc21` [8-(3-cyclopropyl-1-methylureido)-3-(4-fluorobenzoyl)-1,1-dimethyl-1,2,3,6-tetrahydroazepino[4,5-b]indole-5-carboxylic acid ethyl ester]: under setting [2], the inhibition came to 100%. Also, under setting [3], the IC50 is less than 0.1 µM.
